Patent US20160051570A1, “TREATMENT OF RHEUMATOID ARTHRITIS” (Ganderland and Associates, Inc., priority 2014, published 2016)

Tested on: RA
Test: Previous drug treatment of the same RA patients (patient history)
Type: in vivo, human
Details: drug taken before the composition

Question: How did the “effect in remission of the disease” value turn out when `Cc1oncc1C(=O)Nc1ccc(C(F)(F)F)cc1` [arava, leflunomide] was run?
Answer: The value was “without any real effect”.

Question: With ENBREL® as the molecule, how does the “effect in remission of the disease” value read?
Answer: Its value is “without any real effect”.

Question: `CN(Cc1cnc2nc(N)nc(N)c2n1)c1ccc(C(=O)N[C@@H](CCC(=O)O)C(=O)O)cc1` [methotrexate] was tested. Which “effect in remission of the disease” value did it give?
Answer: Its value is “without any real effect”.

Question: For `C[C@]12C=CC(=O)C=C1CC[C@@H]1[C@@H]2C(=O)C[C@@]2(C)[C@H]1CC[C@]2(O)C(=O)CO` [prednisone], which “effect in remission of the disease” value is on record?
Answer: Its value is “without any real effect”.
